Test results as given in US11578012B2, “Use of N-functionalized alkoxy pyrazole compounds as nitrification inhibitors” (BASF SE, priority 2018, dated 2023).

Assay: volatility (statement on prior-art compound)
Format: physicochemical
Settings: qualitative statement, no method given

volatility: high volatility
Compound: CCOc1cc(C)[nH]n1 [3-ethoxy-5-methylpyrazole]
